# Measured values reported in US20230017045A1, “PYRIDINE AND PYRIMIDINE CARBOXYLATE HERBICIDES AND METHODS OF USE THEREOF” (Dow AgroSciences LLC, priority 2017, published 2023).
# Tested on: test plant species
# Test: Post-emergent herbicidal activity test (greenhouse, foliar spray, visual growth reduction)
# Assay type: in vivo
# Settings: post-emergence, 336 h, ALOMY: blackgrass (Alopecurus myosuroides), 140 g ai/ha, 14 days after application, read-out: Visual Growth Reduction (%) 14 Days After Application, ALOMY
# Method: Post-emergent Test: Seeds or nutlets of the desired test plant species were planted in Sun Gro Metro-Mix® 360 planting mixture, which typically has a pH of 6.0 to 6.8 and an organic matter content of about 30 percent, in plastic pots with a surface area of 64 square centimeters. In some aspects, to ensure good germination and healthy plants, a fungicide treatment and/or other chemical or physical treatment was applied. The plants were grown for 7-21 d in a greenhouse with an approximate 15 h photoperiod which was maintained at 23-29° C. during the day and 22-28° C. during the night. Nutrients and water were added on a regular basis and supplemental lighting was provided with overhead metal halide 1000-Watt lamps as necessary. Plants were used for testing when they reached the first or second true leaf stage. A weighed amount, determined by the highest rate to be tested, of each test compound was placed in a 25 mL glass vial and was dissolved in 4 mL of a 97:3 v/v mixture of acetone and DMSO to obtain concentrated stock solutions. […] The concentrated stock solutions obtained were diluted with 20 mL of an aqueous mixture containing acetone, water, isopropyl alcohol, DMSO, […] crop oil concentrate, and X-77 surfactant in a 48.5:39:10:1.5:1.0:0.02 v/v ratio to obtain spray solutions containing the application rate. Compound requirements are based upon a 12 mL application volume at a rate of 187 liters per hectare (L/ha). Formulated compounds were applied to the plant material with an overhead Mandel track sprayer equipped with […] nozzles calibrated to deliver 187 L/ha over an application area of 0.64 square meters at a spray height of 18 inches (43 cm) above the average plant canopy height. Control plants were sprayed in the same manner with the solvent blank. The treated plants and control plants were placed in a greenhouse as described above and watered by subirrigation to prevent wash-off of the test compounds. After 14 d, the condition of the test plants as compared with that of the nontreated and control plants was determined visually and scored on a scale of 0 to 100 percent where 0 corresponds to no injury and 100 corresponds to complete control. In the reporting of the results, Table A: Percent Growth Reduction Conversion Table was used.
row,Structure (SMILES),pest or weed control at 140 g/ha [%]
1,"COC(=O)c1nc(-c2ccc(C(F)(F)F)c(S(C)(=O)=O)c2Cl)ccc1Cl [F139, methyl 3-chloro-6-(2-chloro-3-(methylsulfonyl)-4-(trifluoromethyl)phenyl)picolinate]",0 to 29
2,"COC(=O)c1nc(-c2ccc(Oc3ccc(F)cc3)cc2Cl)ccc1Cl [F123, Methyl 3-chloro-6-(2-chloro-4-(4-fluorophe)phenyl) picolinate]",0 to 29
3,"COC(=O)c1nc(-c2ccc(C(F)(F)F)cc2Cl)cc(Cl)c1Cl [F108, methyl 3,4-dichloro-6-(2-chloro-4-(trifluoromethyl)phenyl)picolinate]",0 to 29

# Same assay, conditions: post-emergence, 336 h, AMARE: redroot pigweed (Amaranthus retroflexus), 140 g ai/ha, 14 days after application, read-out: Visual Growth Reduction (%) 14 Days After Application, AMARE
row,Structure (SMILES),pest or weed control at 140 g/ha [%]
1,"COC(=O)c1nc(-c2ccc(C(F)(F)F)c(S(C)(=O)=O)c2Cl)ccc1Cl [F139, methyl 3-chloro-6-(2-chloro-3-(methylsulfonyl)-4-(trifluoromethyl)phenyl)picolinate]",0 to 29
2,"COC(=O)c1nc(-c2ccc(Oc3ccc(F)cc3)cc2Cl)ccc1Cl [F123, Methyl 3-chloro-6-(2-chloro-4-(4-fluorophe)phenyl) picolinate]",0 to 29
3,"COC(=O)c1nc(-c2ccc(C(F)(F)F)cc2Cl)cc(Cl)c1Cl [F108, methyl 3,4-dichloro-6-(2-chloro-4-(trifluoromethyl)phenyl)picolinate]",0 to 29

# Same assay, conditions: post-emergence, 336 h, AVEFA: wild oat (Avena fatua), 140 g ai/ha, 14 days after application, read-out: Visual Growth Reduction (%) 14 Days After Application, AVEFA
row,Structure (SMILES),pest or weed control at 140 g/ha [%]
1,"COC(=O)c1nc(-c2ccc(C(F)(F)F)c(S(C)(=O)=O)c2Cl)ccc1Cl [F139, methyl 3-chloro-6-(2-chloro-3-(methylsulfonyl)-4-(trifluoromethyl)phenyl)picolinate]",0 to 29
2,"COC(=O)c1nc(-c2ccc(Oc3ccc(F)cc3)cc2Cl)ccc1Cl [F123, Methyl 3-chloro-6-(2-chloro-4-(4-fluorophe)phenyl) picolinate]",0 to 29
3,"COC(=O)c1nc(-c2ccc(C(F)(F)F)cc2Cl)cc(Cl)c1Cl [F108, methyl 3,4-dichloro-6-(2-chloro-4-(trifluoromethyl)phenyl)picolinate]",0 to 29

# Same assay, conditions: post-emergence, 336 h, CHEAL: lambsquarters (Chenopodium album), 140 g ai/ha, 14 days after application, read-out: Visual Growth Reduction (%) 14 Days After Application, CHEAL
row,Structure (SMILES),pest or weed control at 140 g/ha [%]
1,"COC(=O)c1nc(-c2ccc(C(F)(F)F)c(S(C)(=O)=O)c2Cl)ccc1Cl [F139, methyl 3-chloro-6-(2-chloro-3-(methylsulfonyl)-4-(trifluoromethyl)phenyl)picolinate]",0 to 29
2,"COC(=O)c1nc(-c2ccc(Oc3ccc(F)cc3)cc2Cl)ccc1Cl [F123, Methyl 3-chloro-6-(2-chloro-4-(4-fluorophe)phenyl) picolinate]",0 to 29
3,"COC(=O)c1nc(-c2ccc(C(F)(F)F)cc2Cl)cc(Cl)c1Cl [F108, methyl 3,4-dichloro-6-(2-chloro-4-(trifluoromethyl)phenyl)picolinate]",0 to 29

# Same assay, conditions: post-emergence, 336 h, CIRAR: canada thistle (Cirsium arvense), 140 g ai/ha, 14 days after application, read-out: Visual Growth Reduction (%) 14 Days After Application, CIRAR
row,Structure (SMILES),pest or weed control at 140 g/ha [%]
1,"COC(=O)c1nc(-c2ccc(C(F)(F)F)c(S(C)(=O)=O)c2Cl)ccc1Cl [F139, methyl 3-chloro-6-(2-chloro-3-(methylsulfonyl)-4-(trifluoromethyl)phenyl)picolinate]",0 to 29
2,"COC(=O)c1nc(-c2ccc(Oc3ccc(F)cc3)cc2Cl)ccc1Cl [F123, Methyl 3-chloro-6-(2-chloro-4-(4-fluorophe)phenyl) picolinate]",0 to 29
3,"COC(=O)c1nc(-c2ccc(C(F)(F)F)cc2Cl)cc(Cl)c1Cl [F108, methyl 3,4-dichloro-6-(2-chloro-4-(trifluoromethyl)phenyl)picolinate]",0 to 29

# Same assay, conditions: post-emergence, 336 h, CYPES: yellow nutsedge (Cyperus esculentus), 140 g ai/ha, 14 days after application, read-out: Visual Growth Reduction (%) 14 Days After Application, CYPES
row,Structure (SMILES),pest or weed control at 140 g/ha [%]
1,"COC(=O)c1nc(-c2ccc(C(F)(F)F)c(S(C)(=O)=O)c2Cl)ccc1Cl [F139, methyl 3-chloro-6-(2-chloro-3-(methylsulfonyl)-4-(trifluoromethyl)phenyl)picolinate]",30 to 44
2,"COC(=O)c1nc(-c2ccc(Oc3ccc(F)cc3)cc2Cl)ccc1Cl [F123, Methyl 3-chloro-6-(2-chloro-4-(4-fluorophe)phenyl) picolinate]",0 to 29
3,"COC(=O)c1nc(-c2ccc(C(F)(F)F)cc2Cl)cc(Cl)c1Cl [F108, methyl 3,4-dichloro-6-(2-chloro-4-(trifluoromethyl)phenyl)picolinate]",0 to 29

# Same assay, conditions: post-emergence, 336 h, DIGSA: crabgrass (Digitaria sanguinalis), 140 g ai/ha, 14 days after application, read-out: Visual Growth Reduction (%) 14 Days After Application, DIGSA
row,Structure (SMILES),pest or weed control at 140 g/ha [%]
1,"COC(=O)c1nc(-c2ccc(C(F)(F)F)c(S(C)(=O)=O)c2Cl)ccc1Cl [F139, methyl 3-chloro-6-(2-chloro-3-(methylsulfonyl)-4-(trifluoromethyl)phenyl)picolinate]",0 to 29
2,"COC(=O)c1nc(-c2ccc(Oc3ccc(F)cc3)cc2Cl)ccc1Cl [F123, Methyl 3-chloro-6-(2-chloro-4-(4-fluorophe)phenyl) picolinate]",0 to 29
3,"COC(=O)c1nc(-c2ccc(C(F)(F)F)cc2Cl)cc(Cl)c1Cl [F108, methyl 3,4-dichloro-6-(2-chloro-4-(trifluoromethyl)phenyl)picolinate]",0 to 29

# Same assay, conditions: post-emergence, 336 h, ECHCG: barnyardgrass (Echinochloa crus-galli), 140 g ai/ha, 14 days after application, read-out: Visual Growth Reduction (%) 14 Days After Application, ECHCG
row,Structure (SMILES),pest or weed control at 140 g/ha [%]
1,"COC(=O)c1nc(-c2ccc(C(F)(F)F)c(S(C)(=O)=O)c2Cl)ccc1Cl [F139, methyl 3-chloro-6-(2-chloro-3-(methylsulfonyl)-4-(trifluoromethyl)phenyl)picolinate]",0 to 29
2,"COC(=O)c1nc(-c2ccc(Oc3ccc(F)cc3)cc2Cl)ccc1Cl [F123, Methyl 3-chloro-6-(2-chloro-4-(4-fluorophe)phenyl) picolinate]",0 to 29
3,"COC(=O)c1nc(-c2ccc(C(F)(F)F)cc2Cl)cc(Cl)c1Cl [F108, methyl 3,4-dichloro-6-(2-chloro-4-(trifluoromethyl)phenyl)picolinate]",0 to 29

# Same assay, conditions: post-emergence, 336 h, IPOHE: ivy-leaf morning glory (Ipomoea hederacea), 140 g ai/ha, 14 days after application, read-out: Visual Growth Reduction (%) 14 Days After Application, IPOHE
row,Structure (SMILES),pest or weed control at 140 g/ha [%]
1,"COC(=O)c1nc(-c2ccc(C(F)(F)F)c(S(C)(=O)=O)c2Cl)ccc1Cl [F139, methyl 3-chloro-6-(2-chloro-3-(methylsulfonyl)-4-(trifluoromethyl)phenyl)picolinate]",0 to 29
2,"COC(=O)c1nc(-c2ccc(Oc3ccc(F)cc3)cc2Cl)ccc1Cl [F123, Methyl 3-chloro-6-(2-chloro-4-(4-fluorophe)phenyl) picolinate]",30 to 44
3,"COC(=O)c1nc(-c2ccc(C(F)(F)F)cc2Cl)cc(Cl)c1Cl [F108, methyl 3,4-dichloro-6-(2-chloro-4-(trifluoromethyl)phenyl)picolinate]",30 to 44

# Same assay, conditions: post-emergence, 336 h, KCHSC: kochia (Bassia scoparia), 140 g ai/ha, 14 days after application, read-out: Visual Growth Reduction (%) 14 Days After Application, KCHSC
row,Structure (SMILES),pest or weed control at 140 g/ha [%]
1,"COC(=O)c1nc(-c2ccc(C(F)(F)F)c(S(C)(=O)=O)c2Cl)ccc1Cl [F139, methyl 3-chloro-6-(2-chloro-3-(methylsulfonyl)-4-(trifluoromethyl)phenyl)picolinate]",0 to 29
2,"COC(=O)c1nc(-c2ccc(Oc3ccc(F)cc3)cc2Cl)ccc1Cl [F123, Methyl 3-chloro-6-(2-chloro-4-(4-fluorophe)phenyl) picolinate]",0 to 29
3,"COC(=O)c1nc(-c2ccc(C(F)(F)F)cc2Cl)cc(Cl)c1Cl [F108, methyl 3,4-dichloro-6-(2-chloro-4-(trifluoromethyl)phenyl)picolinate]",0 to 29

# Same assay, conditions: post-emergence, 336 h, ORYSA: rice (Oryza sativa), 140 g ai/ha, 14 days after application, read-out: Visual Growth Reduction (%) 14 Days After Application, ORYSA
row,Structure (SMILES),pest or weed control at 140 g/ha [%]
1,"COC(=O)c1nc(-c2ccc(C(F)(F)F)c(S(C)(=O)=O)c2Cl)ccc1Cl [F139, methyl 3-chloro-6-(2-chloro-3-(methylsulfonyl)-4-(trifluoromethyl)phenyl)picolinate]",0 to 29
2,"COC(=O)c1nc(-c2ccc(Oc3ccc(F)cc3)cc2Cl)ccc1Cl [F123, Methyl 3-chloro-6-(2-chloro-4-(4-fluorophe)phenyl) picolinate]",0 to 29
3,"COC(=O)c1nc(-c2ccc(C(F)(F)F)cc2Cl)cc(Cl)c1Cl [F108, methyl 3,4-dichloro-6-(2-chloro-4-(trifluoromethyl)phenyl)picolinate]",0 to 29

# Same assay, conditions: post-emergence, 336 h, SETFA: giant foxtail (Setaria faberi), 140 g ai/ha, 14 days after application, read-out: Visual Growth Reduction (%) 14 Days After Application, SETFA
row,Structure (SMILES),pest or weed control at 140 g/ha [%]
1,"COC(=O)c1nc(-c2ccc(C(F)(F)F)c(S(C)(=O)=O)c2Cl)ccc1Cl [F139, methyl 3-chloro-6-(2-chloro-3-(methylsulfonyl)-4-(trifluoromethyl)phenyl)picolinate]",0 to 29
2,"COC(=O)c1nc(-c2ccc(Oc3ccc(F)cc3)cc2Cl)ccc1Cl [F123, Methyl 3-chloro-6-(2-chloro-4-(4-fluorophe)phenyl) picolinate]",0 to 29
3,"COC(=O)c1nc(-c2ccc(C(F)(F)F)cc2Cl)cc(Cl)c1Cl [F108, methyl 3,4-dichloro-6-(2-chloro-4-(trifluoromethyl)phenyl)picolinate]",0 to 29

# Same assay, conditions: post-emergence, 336 h, SORVU: grain sorghum (Sorghum vulgare), 140 g ai/ha, 14 days after application, read-out: Visual Growth Reduction (%) 14 Days After Application, SORVU
row,Structure (SMILES),pest or weed control at 140 g/ha [%]
1,"COC(=O)c1nc(-c2ccc(C(F)(F)F)c(S(C)(=O)=O)c2Cl)ccc1Cl [F139, methyl 3-chloro-6-(2-chloro-3-(methylsulfonyl)-4-(trifluoromethyl)phenyl)picolinate]",0 to 29
2,"COC(=O)c1nc(-c2ccc(Oc3ccc(F)cc3)cc2Cl)ccc1Cl [F123, Methyl 3-chloro-6-(2-chloro-4-(4-fluorophe)phenyl) picolinate]",0 to 29
3,"COC(=O)c1nc(-c2ccc(C(F)(F)F)cc2Cl)cc(Cl)c1Cl [F108, methyl 3,4-dichloro-6-(2-chloro-4-(trifluoromethyl)phenyl)picolinate]",0 to 29

# Same assay, conditions: post-emergence, 336 h, STEME: common chickweed (Stellaria media), 140 g ai/ha, 14 days after application, read-out: Visual Growth Reduction (%) 14 Days After Application, STEME
row,Structure (SMILES),pest or weed control at 140 g/ha [%]
1,"COC(=O)c1nc(-c2ccc(C(F)(F)F)c(S(C)(=O)=O)c2Cl)ccc1Cl [F139, methyl 3-chloro-6-(2-chloro-3-(methylsulfonyl)-4-(trifluoromethyl)phenyl)picolinate]",0 to 29
2,"COC(=O)c1nc(-c2ccc(Oc3ccc(F)cc3)cc2Cl)ccc1Cl [F123, Methyl 3-chloro-6-(2-chloro-4-(4-fluorophe)phenyl) picolinate]",0 to 29

# Same assay, conditions: post-emergence, 336 h, TRZAS: wheat, spring (Triticum aestivum), 140 g ai/ha, 14 days after application, read-out: Visual Growth Reduction (%) 14 Days After Application, TRZAS
row,Structure (SMILES),pest or weed control at 140 g/ha [%]
1,"COC(=O)c1nc(-c2ccc(C(F)(F)F)c(S(C)(=O)=O)c2Cl)ccc1Cl [F139, methyl 3-chloro-6-(2-chloro-3-(methylsulfonyl)-4-(trifluoromethyl)phenyl)picolinate]",0 to 29
2,"COC(=O)c1nc(-c2ccc(Oc3ccc(F)cc3)cc2Cl)ccc1Cl [F123, Methyl 3-chloro-6-(2-chloro-4-(4-fluorophe)phenyl) picolinate]",0 to 29
3,"COC(=O)c1nc(-c2ccc(C(F)(F)F)cc2Cl)cc(Cl)c1Cl [F108, methyl 3,4-dichloro-6-(2-chloro-4-(trifluoromethyl)phenyl)picolinate]",0 to 29
